Assay results from ChEMBL document CHEMBL4190383, “Hit discovery of Mycobacterium tuberculosis inosine 5'-monophosphate dehydrogenase, GuaB2, inhibitors” (Bioorg Med Chem Lett, 2018).
Converted amounts (≈) assume the structure as drawn. The source made the active and inactive calls. The calls are words filed in the database; no cut-off is given here.

Assays:
[1] = tested on: Mycobacterium tuberculosis; experiment: Antimicrobial activity against Mycobacterium tuberculosis H37Rv by alamar blue assay; format: functional
[2] = tested on: Mycobacterium tuberculosis; experiment: Antimicrobial activity against Mycobacterium tuberculosis SRMV2.6 H37Rv by alamar blue assay; format: functional
[3] = tested on: Mycobacterium tuberculosis; experiment: Inhibition of Mycobacterium tuberculosis GuaB2 at 50 uM
[4] = Inhibition of Mycobacterium tuberculosis GuaB2
[5] = Octanol/water partition coefficient , logP of the compound; format: physicochemical
[6] = tested on: Mycobacterium tuberculosis; experiment: Antimicrobial activity against Mycobacterium tuberculosis H37Rv in presence of 0.08 to 5 ng/ml anhydrotetracycline-induced guaB2 gene silencing by alamar blue assay; format: functional, organism-based
[7] = target: Inosine-5'-monophosphate dehydrogenase 2 (Homo sapiens) (UniProt P12268); experiment: Inhibition of human IMPDH2 at 10 uM
[8] = tested on: Staphylococcus aureus; experiment: Growth inhibition of methicillin-resistant Staphylococcus aureus at 32 ug/ml; format: functional; details: read-out: GI
[9] = tested on: Escherichia coli; experiment: Growth inhibition of Escherichia coli at 32 ug/ml; format: functional; details: read-out: GI
[10] = tested on: Klebsiella pneumoniae; experiment: Growth inhibition of Klebsiella pneumoniae at 32 ug/ml; format: functional; details: read-out: GI
[11] = tested on: Pseudomonas aeruginosa; experiment: Growth inhibition of Pseudomonas aeruginosa at 32 ug/ml; format: functional; details: read-out: GI
[12] = tested on: Acinetobacter baumannii; experiment: Growth inhibition of Acinetobacter baumannii at 32 ug/ml; format: functional; details: read-out: GI
[13] = tested on: Candida albicans; experiment: Growth inhibition of Candida albicans at 32 ug/ml; format: functional; details: read-out: GI
[14] = tested on: Cryptococcus neoformans; experiment: Growth inhibition of Cryptococcus neoformans var. grubii at 32 ug/ml; format: functional; details: read-out: GI
[15] = Inhibition of Mycobacterium tuberculosis GuaB2 expressed in Escherichia coli BL21(DE3) using [2-2H]-IMP or [2-1H]-IMP and NAD+ incubated for 2 hrs by 1H NMR method

Sequence of Inosine-5'-monophosphate dehydrogenase 2 (Homo sapiens) (P12268 2-514 limits assumed): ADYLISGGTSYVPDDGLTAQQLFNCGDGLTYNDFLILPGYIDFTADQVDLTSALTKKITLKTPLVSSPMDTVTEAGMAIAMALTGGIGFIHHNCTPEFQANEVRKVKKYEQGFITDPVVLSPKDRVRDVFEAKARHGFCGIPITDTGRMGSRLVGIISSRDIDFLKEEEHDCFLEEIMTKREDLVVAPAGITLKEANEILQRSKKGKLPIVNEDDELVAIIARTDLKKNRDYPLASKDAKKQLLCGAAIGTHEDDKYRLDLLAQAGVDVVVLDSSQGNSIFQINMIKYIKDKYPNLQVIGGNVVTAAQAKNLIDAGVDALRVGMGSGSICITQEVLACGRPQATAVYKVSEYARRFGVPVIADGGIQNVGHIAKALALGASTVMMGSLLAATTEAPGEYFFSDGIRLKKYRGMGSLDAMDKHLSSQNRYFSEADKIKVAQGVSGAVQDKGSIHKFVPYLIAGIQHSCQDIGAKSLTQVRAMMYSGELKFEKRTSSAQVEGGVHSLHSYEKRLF

With COc1cccc(NC(=O)Nn2c(C)nc3sccc3c2=O)c1 the MIC90 [1] was over 100 µM.

With CC(C)Cc1ccc(C(C)C(=O)Nc2ccc3c(c2)COC3=O)cc1 (stereo unspecified) the MIC90 [1] was over 100 µM.

COc1c(C)c2c(c(O)c1C/C=C(\C)CCC(=O)O)C(=O)OC2 [MYCOPHENOLIC ACID] showed an MIC90 [1] of 50 µM (≈ 16 µg/mL), an MIC90 [2] of 50 µM (≈ 16 µg/mL) and an inhibition [3] of 83%. For the same molecule, the IC50 [4] was 27.2 µM, the logP [5] was 2.68 and the Activity [6] was “Active”. It also gave an inhibition [7] of 99.9%, an inhibition of growth at 32 µg/mL [8] of 52.4% and an inhibition of growth at 32 µg/mL [9] of 2.37%. For the same molecule, the inhibition of growth at 32 µg/mL [10] was 3.78%, the inhibition of growth at 32 µg/mL [11] was 18.8% and the inhibition of growth at 32 µg/mL [12] was 19.4%. The inhibition of growth at 32 µg/mL [13] was 96.9% and the inhibition of growth at 32 µg/mL [14] was 91.4%.

Fc1ccccc1NC(=S)Nc1ccc(-c2cccc(Cl)c2)cn1 showed an MIC90 [1] of over 100 µM.

Cc1ccccc1NC(=S)Nc1ccc(-c2cc(Cl)cc(Cl)c2)cn1 showed an MIC90 [1] of over 100 µM.

In the case of Cc1nc2sccc2c(=O)n1NC(=O)Nc1ccc([N+](=O)[O-])cc1, the MIC90 [1] is reported as over 100 µM.

With Cc1nc2sccc2c(=O)n1NC(=S)Nc1ccccc1F the MIC90 [1] was over 100 µM.

Molecule Clc1ccc(Cn2nncc2COc2ccc3ccccc3c2)c(Cl)c1 has an MIC90 [1] of over 100 µM.

Fc1ccccc1Cn1nncc1COc1ccc2ccccc2c1 showed an MIC90 [1] of over 100 µM.

Work on Clc1ccc(Cn2nncc2COc2ccc3ccccc3c2)cc1 yielded an MIC90 [1] of over 100 µM.

In the case of Cc1nc2sccc2c(=O)n1NC(=O)Nc1ccc(F)cc1, the MIC90 [1] is reported as over 100 µM.

Molecule CC(=O)C1CCN(CC(=O)Nn2c(C)nc3sccc3c2=O)CC1 has an MIC90 [1] of over 100 µM.

Work on Cc1nnc(-c2ccc(OCc3cnnn3Cc3ccc(-c4ccccc4)cc3)cc2)o1 yielded an MIC90 [1] of 100 µM (≈ 42.3 µg/mL), an MIC90 [2] of 100 µM (≈ 42.3 µg/mL) and an inhibition [3] of 72.6%. The logP [5] was over 4.5, the inhibition [7] was 0.1% and the inhibition of growth at 32 µg/mL [8] was 14%. For the same molecule, the inhibition of growth at 32 µg/mL [9] was -7.2%, the inhibition of growth at 32 µg/mL [10] was 2.97% and the inhibition of growth at 32 µg/mL [11] was 7.93%. It also gave an inhibition of growth at 32 µg/mL [12] of -14.1%, an inhibition of growth at 32 µg/mL [13] of -0.24% and an inhibition of growth at 32 µg/mL [14] of -70.2%.

Molecule Cc1nnc(-c2ccc(OCc3cnnn3Cc3ccc(Cl)cc3)cc2)o1 has an MIC90 [1] of over 100 µM.

Fc1ccc(Cn2nncc2COc2ccc3ccccc3c2)cc1 gave an MIC90 [1] of over 100 µM.

Cc1ccc2nc(NC(=O)CCC(=O)O)sc2c1 showed an MIC90 [1] of over 100 µM.

Cc1nc2sccc2c(=O)n1NC(=O)Nc1ccc2c(c1)OCO2 showed an MIC90 [1] of over 100 µM.

COc1ccc(NC(=O)CC/C(C)=C/Cc2c(O)c3c(c(C)c2OC)COC3=O)cc1 gave an MIC90 [1] of over 100 µM.

Molecule COc1ccc(NC(=O)Nn2c(C)nc3sccc3c2=O)cc1 has an MIC90 [1] of over 100 µM.

Cc1nc2sccc2c(=O)n1NC(=O)/C=C/c1ccccc1 showed an MIC90 [1] of over 100 µM.

For O=C(Cn1c(-c2cscn2)nc2ccccc21)c1ccc(Br)cc1, the Ki [15] was 0.55 µM.

O=C(O)COCC(=O)Nc1ccccc1C(=O)O gave an MIC90 [1] of over 100 µM.

For O=C(COc1cccc2ccccc12)Nc1ccc2c(c1)COC2=O, the MIC90 [1] was over 100 µM.

Cc1nc2sccc2c(=O)n1NC(=O)Nc1cccc([N+](=O)[O-])c1 gave an MIC90 [1] of over 100 µM.

Work on O=C(O)CCCC(=O)Nc1ccc(N2CC3(COC3)C2)c(F)c1 yielded an MIC90 [1] of over 100 µM.

For COc1cc(-c2oc3ccccc3c(=O)c2OCC(=O)Nc2ccc3c(c2)COC3=O)cc(OC)c1OC, the MIC90 [1] was over 100 µM.

With COc1ccc2[nH]c(S(=O)(=O)Cc3ncc(C)c(OC)c3C)nc2c1 [OMEPRAZOLE SULFONE] the MIC90 [1] was over 100 µM.

CCOC(=O)C1CCN(CC(=O)Nc2ccc3c(c2)COC3=O)CC1 showed an MIC90 [1] of over 100 µM.

Cc1nnc(-c2ccc(OCc3cnnn3Cc3ccc(F)cc3)cc2)o1 gave an MIC90 [1] of over 100 µM.

For Cc1nnc(-c2ccc(OCc3cnnn3Cc3cccc(Cl)c3)cc2)o1, the MIC90 [1] was 50 µM (≈ 19.1 µg/mL), the MIC90 [2] was over 100 µM and the inhibition [3] was “inactive”. The inhibition [7] was 0.1%, the inhibition of growth at 32 µg/mL [8] was 10.3% and the inhibition of growth at 32 µg/mL [9] was -5.62%. It also gave an inhibition of growth at 32 µg/mL [10] of 2.15%, an inhibition of growth at 32 µg/mL [11] of 5.84% and an inhibition of growth at 32 µg/mL [12] of -12.1%. It also gave an inhibition of growth at 32 µg/mL [13] of -0.27% and an inhibition of growth at 32 µg/mL [14] of -76.2%.

For COc1cccc(NC(=O)Nn2c(C)nc3ccsc3c2=O)c1, the MIC90 [1] was over 100 µM.

Molecule O=C(COc1cc(Cl)ccc1Oc1ccc(Cl)cc1Cl)Nc1ccc2c(c1)COC2=O has an MIC90 [1] of over 100 µM.

Cc1nnc(-c2ccc(OCc3cnnn3Cc3ccccc3F)cc2)o1 gave an MIC90 [1] of 100 µM (≈ 36.5 µg/mL), an MIC90 [2] of over 100 µM and an inhibition [3] of 71%. The logP [5] was 2.5 to 3.5, the inhibition [7] was 0.1% and the inhibition of growth at 32 µg/mL [8] was 7.55%. For the same molecule, the inhibition of growth at 32 µg/mL [9] was -5.41%, the inhibition of growth at 32 µg/mL [10] was -2.49% and the inhibition of growth at 32 µg/mL [11] was 0.96%. For the same molecule, the inhibition of growth at 32 µg/mL [12] was -8.76%, the inhibition of growth at 32 µg/mL [13] was 2.24% and the inhibition of growth at 32 µg/mL [14] was -88.2%.

Molecule Clc1cccc(Cn2nncc2COc2ccc3ccccc3c2)c1 has an MIC90 [1] of over 100 µM.

For O=C1OCc2cc(NS(=O)(=O)c3ccc([N+](=O)[O-])cc3)ccc21, the MIC90 [1] was over 100 µM.

In the case of O=C(O)CCCC(=O)Nc1cc(-c2ccco2)[nH]n1, the MIC90 [1] is reported as over 100 µM.
